Results reported in article PMC6332076, “Plasma Pharmacokinetics of Polyphenols in a Traditional Japanese Medicine, Jumihaidokuto, Which Suppresses Propionibacterium acnes-Induced Dermatitis in Rats” (Molecules, 2015).
Read-outs that look alike come from different tables or passages of the source.

Legend:
[1] = Antioxidant assay, hydrogen peroxide-dependent oxidation (OxiSelect In vitro ROS/RNS Assay, DCFH-DiOxyQ); type: biochemical; conditions: for activity against ROS (in words): hydrogen peroxide-dependent oxidation; for Antioxidant activity, IC50, Hydrogen Peroxide: tested at 0.1-30 μmol/L, N = 3, n.d. = not detectable at the maximal concentration (30 μmol/L); for anti-ROS activity of glucuronide compared with its aglycone: serially-diluted concentrations
Procedure: Figure 4 Concentration dependency of flavonoid glucuronides and comparison with aglycones. Glucuronides and aglycones of flavonoid were assayed at serially-diluted concentrations to assess on hydrogen peroxide-dependent oxidation. Test samples were incubated with hydrogen peroxide for 5 min, followed by mixing with a probe of oxidant activity. After 15 min incubation, the hydrogen peroxide-dependent fluorescent intensity was measured. Data are shown as mean ± S.E. of triplicates. To assess ROS, OxiSelect In vitro ROS/RNS Assay kits ([…], Minneapolis, MN, USA) were used according to manufacturer’s instructions. Briefly, a test sample was incubated with 2.5 μmol/L of hydrogen peroxide for 5 min, and dichlorodihydrofluorescin DiOxyQ (DCFH-DiOxyQ) was added as a probe of oxidant activity. After 15 min incubation, the hydrogen peroxide-dependent fluorescent intensity was measured using a fluorescent plate reader (Infinite M200; Tecan, Wako Pure Chemical Industries). Percentage of inhibition of ROS was calculated using the following equation: [1 − (sample RFU^a − base RFU^b)/(control RFU^c − base RFU^b)] × 100 (1) where RFU is a relative fluorescent unit of reaction solution, a is RFU of DCFH-DiOxyQ with hydrogen peroxide and sample, b is RFU of DCFH-DiOxyQ alone, and c is RFU of DCFH-DiOxyQ with hydrogen peroxide.

[2] = Antioxidant assay, nitric oxide generated from NOR3 (Griess reagent); type: biochemical; conditions: for activity against nitric oxide (in words): nitric oxide reaction
Procedure: To quantify nitric oxide, a test sample was incubated at 37 °C for 150 min in PBS supplemented with 30 μmol/L of (±)-(E)-4-ethyl-2-[(E)-hydroxyimino]-5-nitro-3-hexenamide (NOR3). Nitric oxide generated naturally from NOR3, was measured using the Griess reagent (1% sulfanilamide, 0.1% N-(1-naphthyl) ethylenediamine dihydrochlride in 5% H3PO4). Briefly, 100 μL of the reacted solution was incubated for 5 min with 100 μL Griess reagent. Optical densities at 540 nm were then measured.

in vivo = assay: in vivo; design: species or system rat; conditions: for AUC(0-t) / Cmax / half-life / tmax: oral JHT 2 g/kg, non-compartmental; for concentration at 1 h / concentration at 24 h: rat, po, 2 g/kg; for concentration at 1 h: plasma; for concentration at 24 h: in vivo, 24 h after oral JHT 2 g/kg
Procedure: The higher dose than that in the pharmacological test was used to detect more constituents. […] In some experiments to deconjugate glucuronidated polyphenols, the samples were incubated with 75 mmol/L phosphate buffer containing 200 units/mL β-glucuronidase from Escherichia coli (Sigma-Aldrich) for 2 h at 37 °C.
For quantification of liquiritin, liquiritigenin, isoliquiritin, isoliquiritigeniin, hesperidin, hesperetin, castalagin, and all flavonoid glucuronides, 25–60 µL of standard solution and 25 µL of internal standard solution were added to 200–300 µL of plasma samples, followed by mixing well. Methanol (750–800 µL) was added to the solutions, followed by mixing and centrifugation (7000 g, 5 min). The supernatants were collected and dried at 40 °C under a stream of nitrogen gas. Then, the dried residue was dissolved in 50–100 μL of the HPLC mobile phase of each analytical method, and a 1–20 μL portion was injected into the LC-MS/MS systems. For quantification of genistein, luteolin, quercetin, (+)-catechin, (−)-epicatechin gallate, (±)-gallocatechin, Gallic acid, 4-O-methylgallic acid, hamamelitannin, 1,2,3,6-tetra-O-galloyl glucose, 1,2,3,4,6-penta-O-galloyl glucose, eugeniin, and 1-desgalloyl eugeniin, 200 μL of plasma samples were used. The amounts were measured using the same procedure, as described previously, except ethyl acetate (500 μL) and 2% acetic acid (100 μL), instead of methanol, were used concurrently as an extraction solution.
Plasma pharmacokinetic data were analyzed by non-compartmental modeling using Phoenix WinNonlin (version 6.3, Certara L.P., St. Louis, MO, USA) to determine various pharmacokinetic constants including the maximum concentration (Cmax), time to maximum concentration (tmax), apparent elimination half-life (t1/2), and area under the plasma concentration-time curve from time zero to the last observation (AUC0–last). The t1/2 was […] loge2/ke, where ke is the terminal elimination (at least three data points on the descending linear limb) rate constant.

[3] = rat plasma, 1 h after oral JHT 2 g/kg, read-out: plasma concentration before β-glucuronidase treatment
[4] = rat plasma after oral JHT 2 g/kg
[5] = rat plasma, 6 h after oral JHT 2 g/kg

Row | Compound | AUC(0-t) (in vivo; rat plasma) | Cmax (in vivo; rat plasma) | half-life (in vivo; rat plasma) | tmax (in vivo; rat plasma) | Antioxidant activity, IC50, Hydrogen Peroxide [1] | also measured
1 | COc1cc(C(=O)O)cc(O)c1O [3-O-methylgallic acid] |  |  |  |  |  | activity against ROS (in words) [1]: strong activity; activity against nitric oxide (in words) [2]: not nitric oxide
2 | COc1c(O)cc(C(=O)O)cc1O [4-O-Methylgallic acid, 4-O-methylgallic acid] | 32.7 ng·h/mL | 6.65 ng/mL | 1.62 h | 2.00 H | not detectable even at the highest concentration | plasma concentration after β-glucuronidase treatment (in vivo; rat plasma, 1 h after oral JHT 2 g/kg): unchanged; concentration at 1 h (in vivo; [3]): 5.57 ng/mL; Antioxidant activity, IC50, Nitric Oxide ([2]; tested at 0.1-30 μmol/L, N = 3, n.d. = not detectable at the maximal concentration (30 μmol/L)): 3.59 µg/mL
3 | COc1c2c(cc3oc(CO)cc(=O)c13)O[C@H](C(C)(C)O)C2 [Cimifugin, cimifugin, reference compound] |  |  |  |  |  | appearance / detection in plasma (in vivo; [4]): identified by major peaks; activity against ROS (in words) [1]: no activity; activity against nitric oxide (in words) [2]: no activity
4 | O=C(O)c1cc(O)c(O)c(O)c1 [Gallic acid] |  |  |  |  |  | plasma concentration (not detected) (in vivo; [4]): < 10 ng/mL
5 | O=C(O)C1OC(Oc2cc(O)c3c(=O)c(-c4ccc(O)cc4)coc3c2)C(O)C(O)C1O (stereo not shown) [Genistein 7-O-glucuronide, genistein 7-O-glucuronide] | 812 ng·h/mL | 53.4 ng/mL |  | 24.0 H | 0.638 µg/mL | plasma concentration (in vivo; rat plasma at 10 and 24 h after oral JHT): approximately 50 ng/mL; tmax (in vivo; rat plasma, listed as GEN-7G): 24 H; inhibition (anti-ROS activity) ([1]; at 134 ng/mL, statistically significant, Figure 4): 25%; anti-ROS activity of glucuronide compared with its aglycone ([1]; Figure 4): completely identical to that of their aglycones
6 | CC1(C)[C@@H](O)CC[C@]2(C)[C@H]3C(=O)C=C4[C@@H]5C[C@@](C)(C(=O)O)CC[C@]5(C)CC[C@@]4(C)[C@]3(C)CC[C@@H]12 [Glycyrrhetic acid, glycyrrhetic acid, reference compound] |  |  |  |  |  | appearance / detection in plasma (in vivo; [4]): identified by major peaks; activity against ROS (in words) [1]: no activity; activity against nitric oxide (in words) [2]: no activity
7 | COc1ccc(C2CC(=O)c3c(O)cc(OC4OC(C(=O)O)C(O)C(O)C4O)cc3O2)cc1O (stereo not shown) [Hesperetin 7-O-glucuronide, hesperetin 7-O-glucuronide] | 190 ng·h/mL | 34.2 ng/mL | 2.99 h | 4.00 H | 4.27 µg/mL | anti-ROS activity of glucuronide compared with its aglycone ([1]; Figure 4): partially decreased
8 | O=C(O)[C@H]1O[C@@H](Oc2cc(O)c3c(=O)cc(-c4ccc(O)c(O)c4)oc3c2)[C@H](O)[C@@H](O)[C@@H]1O [LTN-7G, luteolin 7-O-glucuronide] |  |  |  |  |  | appearance / detection in plasma (in vivo; [4]): did not appear in the plasma
9 | O=C1CC(c2ccc(OC3OC(C(=O)O)C(O)C(O)C3O)cc2)Oc2cc(O)ccc21 (stereo not shown) [Liquiritigenin 4′-O-glucuronide, liquiritigenin 4′-O-glucuronide] | 522 ng·h/mL | 84.1 ng/mL | 2.27 h | 2.00 H | not detectable even at the highest concentration | activity against ROS (in words) [1]: no activity; anti-ROS activity of glucuronide compared with its aglycone ([1]; Figure 4): no activity
10 | O=C1C[C@@H](c2ccc(O[C@@H]3O[C@H](CO)[C@@H](O)[C@H](O)[C@H]3O)cc2)Oc2cc(O)ccc21 [Liquiritin] |  |  |  |  |  | concentration at 1 h (in vivo; rat plasma, 1 h after oral JHT 2 g/kg, read-out: plasma concentration after β-glucuronidase treatment): 39.1 ng/mL; concentration at 1 h (in vivo; [3]): 2.4 ng/mL
11 | O=C(O)[C@H]1O[C@@H](Oc2c(-c3ccc(O)c(O)c3)oc3cc(O)cc(O)c3c2=O)[C@H](O)[C@@H](O)[C@@H]1O [QCN-3G, quercetin 3-O-glucuronide] |  |  |  |  |  | appearance / detection in plasma (in vivo; [4]): did not appear in the plasma
12 | O=c1c(-c2ccc(O)cc2)coc2cc(O)cc(O)c12 [genistein] |  |  |  |  |  | concentration at 24 h (in vivo; rat plasma, read-out: plasma concentration after β-glucuronidase treatment): 78.3 ng/mL; concentration at 24 h (in vivo; rat plasma, read-out: plasma concentration before β-glucuronidase treatment): 0.975 ng/mL
13 | O=C1C[C@@H](c2ccc(O)cc2)Oc2cc(O)ccc21 [liquiritigenin] |  |  |  |  |  | plasma concentration after β-glucuronidase treatment (in vivo; [5]): 200 ng/mL; plasma concentration before β-glucuronidase treatment (in vivo; [5]): 0.873 ng/mL; activity against ROS (in words) [1]: strong activity

The next lines start with results.

Row | AUC(0-t) (in vivo; rat plasma) | Cmax (in vivo; rat plasma) | half-life (in vivo; rat plasma) | tmax (in vivo; rat plasma) | Antioxidant activity, IC50, Hydrogen Peroxide [1] | Compound | also measured
14 | 11.6 ng·h/mL | 3.19 ng/mL |  | 0.250 H | 0.704 µg/mL | O=C(C=Cc1ccc(O)cc1)c1ccc(O)cc1OC1OC(C(=O)O)C(O)C(O)C1O (stereo not shown) [Isoliquiritigenin 2′-O-glucuronide, isoliquiritigenin 2′-O-glucuronide] | 
15 | 1.84 ng·h/mL | 0.388 ng/mL | 5.68 h | 0.250 H |  | O=C(C=Cc1ccc(OC2OC(C(=O)O)C(O)C(O)C2O)cc1)c1ccc(O)cc1O (stereo not shown) [Isoliquiritigenin 4-O-glucuronide, isoliquiritigenin 4-O-glucuronide] | 
16 | 80.8 ng·h/mL | 15.8 ng/mL | 2.25 h | 0.250 H | 0.691 µg/mL | O=C(C=Cc1ccc(O)cc1)c1ccc(OC2OC(C(=O)O)C(O)C(O)C2O)cc1O (stereo not shown) [Isoliquiritigenin 4′-O-glucuronide, isoliquiritigenin 4′-O-glucuronide] | anti-ROS activity of glucuronide compared with its aglycone ([1]; Figure 4): completely identical to that of their aglycones
17 | 223 ng·h/mL | 35.6 ng/mL | 2.72 h | 2.00 H | 0.765 µg/mL | O=C1CC(c2ccc(O)cc2)Oc2cc(OC3OC(C(=O)O)C(O)C(O)C3O)ccc21 (stereo not shown) [Liquiritigenin 7-O-glucuronide, liquiritigenin 7-O-glucuronide] | anti-ROS activity of glucuronide compared with its aglycone ([1]; Figure 4): completely identical to that of their aglycones
